Experimental data reported in patent publication US9994578B2, “Benzodiazepine derivative and use thereof” (JIANGSU NHWALUOKANG PHARMCEUTICAL RESEARCH AND DEVELOPMENT …, priority 2014, dated 2018).
Values after ≈ are worked out from the molar mass of the structure shown. Marks after values point to notes of the source that are not given here.

Key:
[1] = Solubility in normal saline; format: physicochemical; conditions: saline or isotonic
Experimental: The structures of the compounds C1-C5 and their solubilities in normal saline are as follows:
Furthermore, other derivatives were also prepared. The structures and solubilities in normal saline are as follows: […]

Kunming mice = test: Anesthetic efficacy on mice (disappearance of righting reflex); format: in vivo; conditions: for Number of anesthetized animals / Behavior of animals: 9 mg/kg caudal vein injection, 0.9 mg/ml; for Number of anesthetized animals: 6 per group, disappearance of righting reflex
Experimental: Kunming mice (SPF, Chongqing Medical University Animal Center) were randomly grouped with 6 animals in each group. The dosage as 9 mg/kg was administered via caudal vein injection for 3-5 seconds. The performances during animal experiments were recorded with the standard of disappearance of righting reflex.

[2] = Oil/water partition coefficient (n-octanol/water); format: physicochemical; conditions: 1 mg/ml aqueous solution, room temperature
Experimental: Remirnazolam and compound C2 were formulated into aqueous solution of 1 mg/ml respectively, 10 ml of prepared solution were measured and n-octanol with equal volume was added.

[3] = Rat plasma decomposition in vitro; format: in vitro ADME; conditions: 37° C.
Experimental: Remimazolam and compound C2 were formulated in normal saline of respectively. 0.1 ml of the solution was measured and added into plasma of rat (living Kunming species, SPF, Animal center of Chongqing Medical University). Mixing was performed sufficiently, and the mixture was placed in constant temperature water bath of 37° C. 2 ml of acetonitrile was added immediately after taking samples at different time-points. Shaking and centrifugation at 1000 rpm/min were conducted to obtain supernatant and HPLC measurement was performed.

[4] = Anesthetic ED50, LD50 and TI index of rats (sequential method); format: in vivo; conditions: rat, in vivo, intravenous; male SD rats, caudal vein injection in 10 seconds, death
Experimental: (§1) Anesthetic ED50 (median effective dose) value and LD50 (half lethal dose) value of rats are determined by sequential method. Healthy male SD rats (SPF, Qinglongshan animal breeding center of Nanjing), n-10˜20, were administrated via caudal vein injection and injection was completed in 10 seconds at a constant speed. The rough dosage that cause anesthesia (or death) of animal was found by preliminary test before experiment and used as middle dosage for the formal experiment. The spacing of each group was set as 0.8, and 2-3 dose-groups were set up and down, respectively. During the formal experiment, administration began from the group of middle dosage. When the animal was anaesthetized (or dead), administration was reduced by a dose unit; if the animal was not anaesthetized (or death), administration was increased by a dose unit until 3-4 reversal were found. The disappearance of righting reflex or death was used as judgment index, respectively. The ot425 software was used to calculate LD50 and ED50. Treatment index (TI index) was calculated by LD50 and ED50 value=LD50/ED50.

SD rats = test: as above; format: in vivo; conditions: for ED50: Rattus norvegicus, male SD rats, caudal vein injection in 10 seconds, disappearance of righting reflex; for TI index: rats, LD50/ED50
Experimental: as §1

Kunming rats = test: Anesthetic induction time and waking up time of rats via intravenous bolus; format: in vivo; conditions: for Number of anesthetic animals: 2*ED50 caudal vein injection in 10 seconds, 10 per group; for Induction time: 2*ED50 i.v. bolus, time to disappearance of righting reflex
Experimental: (§2) Kunming rats (SPF, Qinglongshan animal breeding center of Nanjing), half male and half female, were divided into groups with 10 animals in each group. The dosage of administration was 2*ED50 (ED50 value was detected in Example 12) and caudal vein injection was done at a constant speed in 10 seconds. The time for the disappearance of right reflex (latent period) and recovery time (duration period) of rats were recorded.

rats = test: as above; format: in vivo; conditions: 2*ED50 i.v. bolus, recovery time
Experimental: as §2

[5] = tested on: New Zealand white rabbits; test: Rabbits anesthetic ED50 (sequential method); format: in vivo; conditions: Oryctolagus cuniculus, ear vein injection in 30 seconds, disappearance of righting reflex
Experimental: Anesthetic ED50 values of rabbits are determined by sequential method. Healthy New Zealand white rabbits (SPF, Peizhou rabbit breeding center) were administrated via ear vein injection at a constant speed in 30 seconds. The rough dosage that cause anesthesia (or death) of animal were found by preliminary test before experiment and used as middle dosage for the formal experiment. The spacing of each group was set as 0.8 and 2-3 dose-groups were set up and down, respectively. The disappearance of righting reflex or death was used as judgment index of efficacy or toxicity, respectively. During the formal experiment, administration began from the group of middle dosage. When the animal was anesthetized (or dead), administration was reduced by a dose unit; if the animal was not anesthetized (or dead), administration was increased by a dose unit, until 3-4 reversal occurred. The disappearance of righting reflex or death was used as judgment index, respectively. The ot425 software was used to calculate ED50.

[6] = tested on: New Zealand white rabbits; test: Anesthetic induction time and waking up time of rabbits via intravenous bolus; format: in vivo; conditions: for Number of anesthetic animals: 1.0 mg/kg (2*ED50) ear vein injection in 30 seconds, 8 per group; for Duration / Induction time: 1.0 mg/kg (2*ED50) i.v. bolus
Experimental: New Zealand white rabbits (SPF, Peizhou rabbit breeding center), half male and half female, were divided into groups with 8 animals in each group. The dosage of administration was 2*ED50 (ED50 value was detected in Example 14), and was administrated via ear vein injection at a constant speed in 30 seconds. The time (latent period) for the disappearance of right reflex and recovery time (duration period) of rabbits were recorded.

[7] = tested on: New Zealand white rabbits; test: Long-term venous infusion experiment on rabbits; format: in vivo; conditions: inducing dose 1.5 mg/kg (3*ED50), maintaining dose 22.5 mg/kg/h
Experimental: New Zealand white rabbits (SPF, Peizhou rabbit breeding center), half male and half female, were divided into groups with 10 animals in each group. The dosage of each administration was 3*ED50 (ED50 value was detected in Example 14) as inducing dosage when intravenous injection was performed on rabbits. An appropriate dosage was infused as maintaining dosage for 30 min. […] The effects of long-term infusion of medicine of the two groups on rabbits (breathe, salivation, excrement) were observed and the time from ceasing administration to the recovery of righting reflex of rabbits were recorded.

Macaca fascicularis = test: Anesthetic pharmacodynamic experiment on Macaca fascicularis; format: in vivo; conditions: for Number of anesthetic animal/number of animal: disappearance of eyelid response
Experimental: Compound C2 showing significant efficacy on other animal, was administrated to Macaca fascicularis for anesthetic pharmacodynamic experiment. The rough anesthetic dosage of compound C2 for Macaca fascicularis was investigated by preliminary test before experiment and different dosages were set for the formal experiment. Intravenous administration was performed in 60±10s. The disappearance of eyelid response of animal was used to judge whether anesthesia occurred on the animal. The behaviors of animals were observed during duration period and the anesthetic effects of compound C2 on Macaca fascicularis were evaluated.

[8] = tested on: GABAA receptor benzodiazepines site; test: In vitro affinity with GABAA receptor benzodiazepines site (3H-flunitrazepam displacement, brain membrane); format: binding, SD rat
[9] = Hepatocyte metabolism experiment of CNS 7056 in vitro with formic acid; format: in vitro ADME; conditions: formic acid added in liver cell nutrient solution at 0.1% (v/v)
Excerpt: Therefore, after a long-term administration of remimazolam during ICU sedation process by ONO PHARMACEUTICAL CO., LTD, the metabolite methanol is easily oxidized to formic acid. Formic acid easily accumulates in vivo and inhibits hCES1 such that remimazolam is metabolized slowly, which may cause high serum concentration in some patients.

ICU patients = conditions: of 49 ICU patients, sedation; cited from earlier work

## CCOC(=O)CC[C@@H]1N=C(c2ccccn2)c2cc(Br)ccc2-n2c(C)cnc21 [C2, remimazolam acid ethyl ester p-toluenesulfonate]
[1]
  solubility: 15 mg/mL (≈ 33.1 mM)
Kunming mice
  Number of anesthetized animals: 6/6
[2]
  logP at 24 h: 3.28
[3]; 10 s
  Rat Plasma decomposition in vitro (%): 61.4%
[3]; 30 s
  Rat Plasma decomposition in vitro (%): 99.0%
[3]; 1 min
  Rat Plasma decomposition in vitro (%): 100%
[4]
  LD50: 30.7 mg/kg
SD rats
  ED50: 3.2 mg/kg
  TI index: 9.6
Kunming rats
  Number of anesthetic animals: 10/10
  Induction time: 18.8 ± 3.0 s
rats
  Duration: 267.4 ± 105 s
[5]
  ED50: 0.512 mg/kg
[6]
  Number of anesthetic animals: 8/8
  Duration: 13.19 ± 3.52 min
  Induction time: 1.80 ± 0.78 min
[7]
  Waking up time after intravenous drip for 30 min: 45.20 ± 12.59 min
Macaca fascicularis; 3 mg/kg i.v.
  Duration: 28.67 ± 5.92 min
  Induction time: 2.00 ± 0.63 s
  Number of anesthetic animal/number of animal: 3/3
Macaca fascicularis; 4 mg/kg i.v.
  Duration: 31.67 ± 6.86 min
  Induction time: 1.74 ± 0.43 s
  Number of anesthetic animal/number of animal: 3/3
Macaca fascicularis; 5 mg/kg i.v.
  Duration: 36.21 ± 4.78 min
  Induction time: 1.48 ± 0.54 s
  Number of anesthetic animal/number of animal: 3/3

## CCOC(=O)CC[C@@H]1N=C(c2ccccn2)c2cc(Br)ccc2-n2c(C)cnc21.O=S(=O)(O)c1ccccc1 [C3, remimazolam acid ethyl ester benzenesulfonate]
[1]
  solubility: 15 mg/mL

## CCOC(=O)CC[C@@H]1N=C(c2ccccn2)c2cc(Br)ccc2-n2c(C)cnc21.CS(=O)(=O)O [C4, remimazolam acid ethyl ester methanesulfonate]
[1]
  solubility: 16 mg/mL

## CCOC(=O)CC[C@@H]1N=C(c2ccccn2)c2cc(Br)ccc2-n2c(C)cnc21.CCS(=O)(=O)O [C5, remimazolam acid ethyl ester ethanesulfonate]
[1]
  solubility: 16 mg/mL

## Cc1ccc(S(=O)(=O)O)cc1.Cc1cnc2n1-c1ccc(Br)cc1C(c1ccccn1)=N[C@H]2CCC(=O)OC(C)C [C6, remimazolam acid isopropyl ester p-toluenesulfonate]
[1]
  solubility: 8 mg/mL
Kunming mice
  Number of anesthetized animals: 6/6
Kunming mice; 9 mg/kg i.v.
  anesthetic effect on the mice: has anesthetic effect on the mice
  toxicity in mice: shows some toxicity

## CCCOC(=O)CC[C@@H]1N=C(c2ccccn2)c2cc(Br)ccc2-n2c(C)cnc21.Cc1ccc(S(=O)(=O)O)cc1 [C7, remimazolam acid n-propyl ester p-toluenesulfonate]
[1]
  solubility: 8 mg/mL
Kunming mice
  Number of anesthetized animals: 0/6

## Cc1ccc(S(=O)(=O)O)cc1.Cc1cnc2n1-c1ccc(Br)cc1C(c1ccccn1)=N[C@H]2CCC(=O)OCCC(C)C [C8, remimazolam acid isopentyl ester p-toluenesulfonate]
[1]
  solubility: 6 mg/mL
Kunming mice
  Behavior of animals: Non-effect
  Number of anesthetized animals: 0/6

## Cc1ccc(S(=O)(=O)O)cc1.Cc1cnc2n1-c1ccc(Br)cc1C(c1ccccn1)=N[C@H]2CCC(=O)OC1CCCCC1 [C9, remimazolam acid cyclohexyl ester p-toluenesulfonate]
[1]
  solubility: 5 mg/mL
Kunming mice
  Behavior of animals: Non-effect
  Number of anesthetized animals: 0/6

## COC(=O)CC[C@@H]1N=C(c2ccccn2)c2cc(Br)ccc2-n2c(C)cnc21 [remimazolam, reference compound]
Kunming mice
  Number of anesthetized animals: 6/6
[8]; 1.0 × 10^−5M test compound, 1 nM 3H-flunitrazepam
  Inhibitory rate %: 99.7* %
[8]; 1.0 × 10^−6M
  Inhibitory rate %: 85.5%
[8]; 1.0 × 10^−7M
  Inhibitory rate %: 47.0%
[8]; 1.0 × 10^−8M
  Inhibitory rate %: 15.4%
[8]; 1.0 × 10^−9M
  Inhibitory rate %: 6.8%
[8]; 1.0 × 10^−10M
  Inhibitory rate %: 23.0%
[8]; calculated by logit method
  IC50: 15.8 nM
[2]
  logP at 24 h: 2.62
[3]; 10 s
  Rat Plasma decomposition in vitro (%): 53.7%
[3]; 30 s
  Rat Plasma decomposition in vitro (%): 96.7%
[3]; 1 min
  Rat Plasma decomposition in vitro (%): 100%
[4]
  LD50: 61.4 mg/kg
SD rats
  ED50: 5 mg/kg
  TI index: 12.3
Kunming rats
  Number of anesthetic animals: 10/10
  Induction time: 52.1 ± 4.7 s
rats
  Duration: 242.2 ± 68 s
[5]
  ED50: 0.512 mg/kg
[6]
  Number of anesthetic animals: 8/8
  Duration: 10.25 ± 2.72 min
  Induction time: 4.30 ± 2.38 min
[7]
  Waking up time after intravenous drip for 30 min: 33.91 ± 10.28 min
Macaca fascicularis; 3 mg/kg i.v.
  Duration: 23.33 ± 6.71 min
  Induction time: 2.17 ± 0.41 s
  Number of anesthetic animal/number of animal: 3/3
[9]
  metabolism of CNS 7056 in hepatocytes: totally inhibited
ICU patients
  patients with higher serum concentration of remimazolam: Five
  patients with prolonged waking up time: five
